ChEMBL document CHEMBL3507680, “University of Dundee, Gates Library screen for HepG2 cell viability”

Test: Human HepG2 cell viability assay in 384 well format
Format: toxicity, cell-based
Set-up: dose 125 nL, time 70.5 hour; concentration not given beside the values
Settings: HepG2 cells, read-out: Inhibition

Structure (SMILES) | cytotoxicity at 70.5 h
CS(=O)(=O)c1nccn1Cc1ccc(C(N)=O)cc1 | -4.15%
CS(=O)(=O)N1CCN(C(=O)c2cc(-c3ccco3)cs2)CC1 | 0.0321%
Cc1ccc(CN2CC[C@@H]3[C@@H](CO[C@H]3CN3CCN(C)CC3)C2)cc1 | -0.515%
Cn1cc(N2Cc3nc(N4CCOCC4)ncc3C2=O)cn1 | -6.6%
COc1ccc(S(=O)(=O)N2CCC(OCc3ccccn3)C2)cc1Br (stereo not drawn) | -9.24%
COc1ccccc1C(=O)N1CC(Cc2nccc3ccn(C)c23)C1 | -0.41%
CC(C)N1CCC2(CC1)C[C@@H](O)[C@H](c1ccccc1)NC2=O | 9.43%
O=C1NCC2CN(Cc3ccccc3OCc3ccccn3)CCN12 (stereo not drawn) | -13.1%
CC(C)c1ncc(CN2C[C@@H](CN3CCC(O)CC3)[C@@H](CO)C2)cn1 | 37.8%
CCNc1ccnc(NCC2(N(C)C)CCOCC2)n1 | -5.81%
COC(=O)c1ccc(CN(C(C)C)C(C)C)o1 | -2.95%
COc1ccc(-c2nc(C#N)c(N(C)C)o2)cc1OC | -5.52%
CC(C)CNC(=O)CN(Cc1ccc(F)cc1)S(C)(=O)=O | -5.67%
CC(C)(CNC(=O)CSc1nnnn1C1CC1)c1ccccc1F | -7.67%
O=C(c1ccco1)N1CCC(n2cc(-c3ccsc3)nn2)CC1 | -5.81%
CN(CCn1cccn1)C1CCCN(Cc2noc(C3CC3)n2)C1 (stereo not drawn) | 12.7%
Cc1cc(NC(=O)C(C)Nc2cccc(COCc3ccco3)c2)no1 (stereo not drawn) | -13.8%
CCc1sc(C(=O)NC2CC2)cc1C | 8.53%
Cc1nc(C)n(CC2CCCN(Cc3ccc(C(N)=O)cc3)C2)n1 (stereo not drawn) | -4.6%
COC(=O)C(NC(=O)COC1CCCCC1)c1ccccc1 (stereo not drawn) | 5.11%

Structure (SMILES) | cytotoxicity at 70.5 h
Cc1nc(NC(=O)c2c(-n3cnnn3)sc3c2CCC3)sc1C | -5.79%
Cc1ccccc1C1(CNCc2cnc(N3CCOCC3)nc2)CC1 | 5.8%
CC1CCCN(Cc2ccc(OCc3nccn3C)cc2)C1 (stereo not drawn) | 14.2%
O=C(NC[C@H]1Cn2c(-c3ccccc3)cnc2CO1)C1CC1 | -7.19%
OCCN1CCN(CC2(O)CCCCC2)CC1 | 0.0783%
Cc1nn(C)c(C)c1C(C)NC(=O)c1cc(CN2CCC(O)CC2)on1 (stereo not drawn) | -5.78%
CS(=O)(=O)c1ccc(OCCNCc2ccc(F)cc2F)cc1 | 0.183%
CCN1CCC(NC(=O)N(C)Cc2csc3ccccc23)CC1 | -8.41%
COCCCN1C(=O)CC[C@H]2CN(Cc3ccc4occc4c3)CC[C@H]21 | 26.4%
COc1cccc(CNC(=O)Cn2ccc3c(C)nn(C)c3c2=O)c1 | -5.8%
Cc1ccc(C(=O)N2CCN(C)C3(CCC(=O)N(C)CC3)C2)c(F)c1 (stereo not drawn) | -9.61%
CN(Cc1cccc(F)c1)C1CCN(CCc2ccccn2)CC1 | 15.1%
CN(C)C(=O)CN1CCCC(c2nccnc2-c2cccc(Cl)c2)C1 (stereo not drawn) | 1.03%
CCn1cncc1CN1CCc2nc3sccc3c(=O)n2CC1 | -5.29%
COCc1nc(C(=O)N2CCCC2Cn2cc(C)cn2)cs1 (stereo not drawn) | -6.43%
Cn1cc(CN(Cc2ccccc2)CC(O)c2cccs2)cn1 (stereo not drawn) | -8.92%
COc1c(C2CCCN2CC(=O)Nc2cccnc2)c(C)nn1C (stereo not drawn) | -6.38%
COC(=O)c1ccc(N2CCN(C(=O)C3CCC3)C(C)C2)cc1 (stereo not drawn) | 17.6%
O=C(C1CCCCN1Cc1nccn1CC(F)(F)F)N1CCCC1 (stereo not drawn) | -2.02%
c1ccc(CN2CCc3ncnc(C4CCOC4)c3CC2)nc1 (stereo not drawn) | -2.85%

Structure (SMILES) | cytotoxicity at 70.5 h
O=C(CCn1cncn1)NC1CCS(=O)(=O)C1 (stereo not drawn) | -11%
COCc1ccccc1NCc1csc(NC(C)=O)n1 | -7.46%
Cc1cnc(N2CCC3(CCN(CC4CCCC4)C3=O)CC2)nc1 | -11%
Cc1noc(C)c1CN1C[C@@H]2COC[C@@H](C(=O)N3CCCCO3)[C@@H]2C1 | -8.21%
COc1cc(CN(C(=O)Nc2cccnc2OC)C2CC2)ccc1O | -19.7%
CC(C)(C)c1cc(NC(=O)CN2CCCC2Cn2cccn2)on1 (stereo not drawn) | 1.91%
CC(C)=CCC1(C(=O)O)CCCN(c2cc(N)ncn2)C1 (stereo not drawn) | 6.26%
O=C(NC1CCCCC1)c1ccc(Oc2ccc3nncn3n2)cc1 | -7.56%
CS(=O)(=O)NCCCNC(=O)c1cnc(-c2ccsc2)s1 | -6.18%
CCC(NC(=O)NCC(=O)Nc1ccc(F)cc1)c1ccncc1 (stereo not drawn) | 2.31%
CCN(c1ccc(C(=O)NCCCN2CCCC2)cc1)S(=O)(=O)CC | -8.8%
O=C(NCc1ccco1)[C@@H]1CCO[C@@H]2CCN(CC3CC3)C[C@@H]21 | -6.8%
CN(CCCOc1ccccc1)S(=O)(=O)N1CCOCC1 | -12.8%
CCc1cccc(NC(=O)NC2CCc3nc(C)nn3C2)c1 (stereo not drawn) | 13.8%
CCN(Cc1cn(CC2CCNCC2)nn1)CC1CCCO1 (stereo not drawn) | -6.79%
Cc1cc(CN2C[C@@H]3CN(Cc4ccsc4)CCO[C@@H]3C2)no1 | 7.7%
O=C(CSC1=NS(=O)(=O)c2cc(F)ccc2N1)Nc1ccc(Cl)cc1 | 22.3%
Cc1cc(C)n(C2CCCN(C(=O)c3cnc4onc(C)c4c3)C2)n1 (stereo not drawn) | -7.95%
